Activity calls are given as the source filed them.
Assays:
cells [1] = assay type: functional, cell-based
cells [2] = assay type: functional, cell-based; remark: listed apart in the source
cells [3] = assay type: functional, cell-based; remark: listed apart in the source
[4] = target: T1, Nuclear receptor subfamily 0 group B member 1 (Homo sapiens, UniProt P51843); assay type: functional, cell-based;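 also: HEK293T cells transfected with SF-1 and DAX-1 plus StAR promoter luciferase reporter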
T1 sequence (P51843 whole entry): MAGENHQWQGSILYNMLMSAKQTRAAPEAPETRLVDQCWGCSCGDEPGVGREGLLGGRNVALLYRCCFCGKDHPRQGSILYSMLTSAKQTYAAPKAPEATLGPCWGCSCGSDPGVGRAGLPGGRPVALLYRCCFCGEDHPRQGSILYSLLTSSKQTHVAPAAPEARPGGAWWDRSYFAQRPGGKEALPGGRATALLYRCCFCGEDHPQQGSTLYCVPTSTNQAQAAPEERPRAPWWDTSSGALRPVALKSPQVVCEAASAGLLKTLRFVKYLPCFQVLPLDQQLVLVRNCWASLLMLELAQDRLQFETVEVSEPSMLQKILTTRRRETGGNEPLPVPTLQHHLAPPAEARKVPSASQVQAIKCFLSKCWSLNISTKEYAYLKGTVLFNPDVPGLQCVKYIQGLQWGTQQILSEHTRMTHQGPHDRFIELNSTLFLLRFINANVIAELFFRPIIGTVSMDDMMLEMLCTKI

[5] = target: 72 kDa type IV collagenase (Homo sapiens, UniProt P08253); test: Dose Response validation of uHTS RPN11 inhibitor hits using a MMP-2 Fluorescence assay.; assay type: functional
[6] = target: 26S proteasome non-ATPase regulatory subunit 14 (Homo sapiens, UniProt O00487); test: inhibition of proteasome subunit RPN11 – biochemical, fluorescence polarization, uHTS hits, confirmation (AID 602368); assay type: functional
Prothrombin = Prothrombin (Bos taurus, UniProt P00735); test: thrombin inhibition, dose response, biochemical, fluorescence polarization, uHTS hits (AID 602369); assay type: functional
[7] = Luminescence Cell-Based Dose Confirmation HTS to Identify Activators of 5'UTR Stem-Loop Driven Alpha-Synuclein mRNA Translation in H4 Neuroglioblastoma Cells. [Related pubchem assays: 1829 (Project Summary), 1814 (Primary HTS)]; assay type: functional
H4 = test: Luminescence Cell-Based Dose Response HTS to Identify Activators of 5'UTR Stem-Loop Driven Prion Protein mRNA Translation in H4 Neuroglioblastoma Cells. [Related pubchem assays: 1829 (Project Summary), 1814 (Primary HTS)]; assay type: functional; settings: Homo sapiens
Cytochrome P450 3A4 = Cytochrome P450 3A4 (Homo sapiens, UniProt P08684);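 also: CYP3A4 tested as one member of a cytochrome P450 panel screen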
Cytochrome P450 2C19 = Cytochrome P450 2C19 (Homo sapiens, UniProt P33261); test: Cytochrome panel assay with activity outcomes. Panel member name: p450-cyp2c19 Compounds with AC50 equal or less than 10 uM are considered active; assay type: functional; settings: read-out: AC50
[8] = Luminescence Cell-Based Dose Response HTS to Identify Activators of Luciferase Translation or Activity in H4 […] Cells. [Related pubchem assays: 1829 (Project Summary), 1814 (Primary HTS)]; assay type: functional
Cytochrome P450 2C9 = Cytochrome P450 2C9 (Homo sapiens, UniProt P11712)
Melanocortin receptor 4 = Melanocortin receptor 4 (Homo sapiens, UniProt P32245); assay type: functional, cell-based;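 also: Cell-based assay with luminescence read-out, confirmatory dose-response testing for agonist activity of biased ligands at MC4R; human U2OS cells with tagged receptor and beta-arrestin; potency of agonists that increase receptor coupling to beta-arrestin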
[9] = target: T2, Probable nicotinate-nucleotide adenylyltransferase (Staphylococcus aureus (strain N315), UniProt P65502); assay type: functional, Staphylococcus aureus subsp. aureus N315; settings: read-out: IC50_Mean;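 as to IC50 Mean: confirmatory dose-response retesting of NadD inhibitor hits first found in an ultra-high-throughput screen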
[10] = target: T2, Probable nicotinate-nucleotide adenylyltransferase; assay type: functional, Staphylococcus aureus subsp. aureus N315
HeLa [11] = test: HeLa cell cytotoxicity, dose response, cytotoxicity control for MITF activator project, CellTiter-Glo luminescence, cherry-pick samples (AID 540259); assay type: functional, cell-based; settings: Homo sapiens
Caspase-3 = target: T3, Caspase-3 (Homo sapiens, UniProt P42574); test: SAR Analysis of small molecule inhibitors of Sentrin-specific proteases (SENPs) using a Caspase-3 Selectivity assay. [Related pubchem assays (depositor defined):AID2540, AID2599, AID434973, AID489001]; assay type: functional
T3 sequence (P42574 whole entry): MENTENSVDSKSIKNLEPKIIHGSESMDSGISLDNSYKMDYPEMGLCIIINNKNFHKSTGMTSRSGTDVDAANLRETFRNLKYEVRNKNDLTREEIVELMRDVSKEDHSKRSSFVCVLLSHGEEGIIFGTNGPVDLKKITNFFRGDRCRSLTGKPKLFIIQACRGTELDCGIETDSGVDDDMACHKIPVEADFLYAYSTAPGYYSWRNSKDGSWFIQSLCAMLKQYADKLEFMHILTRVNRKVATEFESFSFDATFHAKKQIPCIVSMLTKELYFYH

[12] = target: T4, Sentrin-specific protease 8 (Homo sapiens, UniProt Q96LD8); test: SENP8 protease inhibitors, SAR follow-up, biochemical, luminescence (AID 504501); assay type: functional
T4 sequence (Q96LD8 whole entry): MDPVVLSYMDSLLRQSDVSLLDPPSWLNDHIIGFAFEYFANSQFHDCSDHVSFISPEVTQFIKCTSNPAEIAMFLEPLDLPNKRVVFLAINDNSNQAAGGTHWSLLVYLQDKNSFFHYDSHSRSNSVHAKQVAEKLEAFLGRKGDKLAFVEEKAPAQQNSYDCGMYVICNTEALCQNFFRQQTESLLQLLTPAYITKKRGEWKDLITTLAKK

[13] = target: T5, Sentrin-specific protease 7 (Homo sapiens, UniProt Q9BQF6); test: SENP7 protease inhibitors, SAR follow-up, biochemical, luminescence (AID 504497); assay type: functional
T5 sequence (Q9BQF6 whole entry): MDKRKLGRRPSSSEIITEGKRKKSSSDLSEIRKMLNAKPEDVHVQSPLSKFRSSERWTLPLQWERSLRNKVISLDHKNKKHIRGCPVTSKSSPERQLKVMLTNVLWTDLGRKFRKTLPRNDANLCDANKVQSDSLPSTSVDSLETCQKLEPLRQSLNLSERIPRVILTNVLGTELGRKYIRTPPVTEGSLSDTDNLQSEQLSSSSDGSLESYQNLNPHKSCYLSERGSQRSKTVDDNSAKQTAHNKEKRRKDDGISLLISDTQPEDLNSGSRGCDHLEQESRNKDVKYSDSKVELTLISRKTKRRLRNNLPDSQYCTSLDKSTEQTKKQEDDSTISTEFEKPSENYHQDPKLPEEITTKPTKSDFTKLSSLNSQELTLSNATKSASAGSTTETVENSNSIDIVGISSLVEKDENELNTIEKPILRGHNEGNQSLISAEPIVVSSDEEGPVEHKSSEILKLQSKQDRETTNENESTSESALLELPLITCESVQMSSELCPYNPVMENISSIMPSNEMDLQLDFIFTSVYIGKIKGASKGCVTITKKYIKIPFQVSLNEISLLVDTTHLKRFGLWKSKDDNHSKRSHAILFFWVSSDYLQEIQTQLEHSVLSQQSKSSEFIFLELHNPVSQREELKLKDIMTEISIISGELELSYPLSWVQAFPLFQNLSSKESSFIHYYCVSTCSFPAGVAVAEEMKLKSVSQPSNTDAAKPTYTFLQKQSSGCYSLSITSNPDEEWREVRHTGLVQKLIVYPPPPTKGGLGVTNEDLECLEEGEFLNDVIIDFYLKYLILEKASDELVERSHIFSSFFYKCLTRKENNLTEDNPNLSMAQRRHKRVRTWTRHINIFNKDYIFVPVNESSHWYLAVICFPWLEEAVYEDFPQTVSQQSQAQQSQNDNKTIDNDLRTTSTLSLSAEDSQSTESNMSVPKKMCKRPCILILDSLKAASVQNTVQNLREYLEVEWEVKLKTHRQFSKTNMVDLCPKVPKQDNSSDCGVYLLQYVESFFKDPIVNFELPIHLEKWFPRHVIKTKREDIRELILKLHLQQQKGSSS

[14] = target: T6, Sentrin-specific protease 6 (Homo sapiens, UniProt Q9GZR1); test: SAR Analysis of small molecule inhibitors of Sentrin-specific protease 6 (SENP6) using a Luminescent assay. [Related pubchem assays (depositor defined):AID2582, AID2599]; assay type: functional
T6 sequence (Q9GZR1 whole entry): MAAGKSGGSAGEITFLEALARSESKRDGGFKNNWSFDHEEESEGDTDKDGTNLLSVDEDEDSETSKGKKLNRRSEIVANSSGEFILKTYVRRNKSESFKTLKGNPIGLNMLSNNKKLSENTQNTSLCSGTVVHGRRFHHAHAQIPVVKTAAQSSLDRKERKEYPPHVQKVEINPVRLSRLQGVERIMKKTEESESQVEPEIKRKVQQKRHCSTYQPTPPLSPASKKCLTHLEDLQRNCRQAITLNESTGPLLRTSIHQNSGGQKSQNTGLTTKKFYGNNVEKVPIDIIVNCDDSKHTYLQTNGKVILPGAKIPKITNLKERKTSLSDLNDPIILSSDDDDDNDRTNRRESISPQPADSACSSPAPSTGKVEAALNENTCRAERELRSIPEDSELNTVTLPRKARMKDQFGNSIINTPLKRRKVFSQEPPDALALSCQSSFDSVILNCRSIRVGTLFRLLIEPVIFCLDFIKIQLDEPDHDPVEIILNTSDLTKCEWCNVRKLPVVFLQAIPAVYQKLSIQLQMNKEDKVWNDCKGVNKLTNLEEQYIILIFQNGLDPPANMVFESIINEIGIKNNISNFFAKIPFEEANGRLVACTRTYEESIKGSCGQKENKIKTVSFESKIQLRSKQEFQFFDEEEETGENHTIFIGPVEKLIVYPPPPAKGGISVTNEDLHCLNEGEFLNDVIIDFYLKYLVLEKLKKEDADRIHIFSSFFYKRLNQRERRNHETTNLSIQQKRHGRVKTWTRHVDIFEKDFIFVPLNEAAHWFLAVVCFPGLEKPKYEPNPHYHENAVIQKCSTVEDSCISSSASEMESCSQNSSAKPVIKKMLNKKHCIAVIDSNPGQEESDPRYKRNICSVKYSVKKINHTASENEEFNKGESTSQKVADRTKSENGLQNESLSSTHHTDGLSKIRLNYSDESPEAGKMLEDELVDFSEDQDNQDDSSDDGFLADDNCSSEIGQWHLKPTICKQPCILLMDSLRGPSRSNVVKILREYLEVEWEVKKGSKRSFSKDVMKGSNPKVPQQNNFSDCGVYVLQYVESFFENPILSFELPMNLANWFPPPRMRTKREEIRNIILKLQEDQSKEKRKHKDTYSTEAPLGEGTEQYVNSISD

H9c2 = test: cells; assay type: functional, cell-based; settings: Rattus norvegicus, H9c2, Myocardium;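 also: confirmatory concentration-response retest of ultra-high-throughput screening hits for modulation of myocardial damage; cell death induced by hydrogen peroxide oxidative stress; compound pretreatment for 60 min then peroxide exposure for 2 h; potency is for protecting the cells against peroxide damage rather than for killing them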
HeLa [15] = test: HeLa cell cytotoxicity, dose response, cytotoxicity control, ATP luminescence, cherry-pick samples (AID 687004); assay type: functional, cell-based; settings: Homo sapiens
[16] = target: Induced myeloid leukemia cell differentiation protein Mcl-1 (Homo sapiens, UniProt Q07820); assay type: functional
[17] = target: T7, Carboxy-terminal domain RNA polymerase II polypeptide A small phosphatase 1 (Homo sapiens, UniProt Q9GZU7); test: inhibitors of CTDSP1, concentration-response testing, biochemical assay, absorbance-based, actives from ultra-high-throughput screening (AID 540297); assay type: functional
T7 sequence (Q9GZU7 whole entry): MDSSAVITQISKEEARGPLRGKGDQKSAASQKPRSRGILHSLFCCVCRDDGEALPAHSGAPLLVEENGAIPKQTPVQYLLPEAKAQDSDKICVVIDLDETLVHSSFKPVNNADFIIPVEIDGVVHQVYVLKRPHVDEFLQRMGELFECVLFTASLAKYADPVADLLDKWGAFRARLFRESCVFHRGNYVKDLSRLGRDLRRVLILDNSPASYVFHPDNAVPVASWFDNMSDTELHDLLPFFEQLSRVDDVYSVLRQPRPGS

T2 sequence (P65502 whole entry): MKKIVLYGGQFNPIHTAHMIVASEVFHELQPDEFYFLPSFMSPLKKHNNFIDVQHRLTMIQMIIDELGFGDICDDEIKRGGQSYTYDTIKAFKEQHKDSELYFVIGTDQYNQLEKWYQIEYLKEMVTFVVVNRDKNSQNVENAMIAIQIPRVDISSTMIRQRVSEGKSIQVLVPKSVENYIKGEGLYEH
72 kDa type IV collagenase, sequence (P08253 whole entry): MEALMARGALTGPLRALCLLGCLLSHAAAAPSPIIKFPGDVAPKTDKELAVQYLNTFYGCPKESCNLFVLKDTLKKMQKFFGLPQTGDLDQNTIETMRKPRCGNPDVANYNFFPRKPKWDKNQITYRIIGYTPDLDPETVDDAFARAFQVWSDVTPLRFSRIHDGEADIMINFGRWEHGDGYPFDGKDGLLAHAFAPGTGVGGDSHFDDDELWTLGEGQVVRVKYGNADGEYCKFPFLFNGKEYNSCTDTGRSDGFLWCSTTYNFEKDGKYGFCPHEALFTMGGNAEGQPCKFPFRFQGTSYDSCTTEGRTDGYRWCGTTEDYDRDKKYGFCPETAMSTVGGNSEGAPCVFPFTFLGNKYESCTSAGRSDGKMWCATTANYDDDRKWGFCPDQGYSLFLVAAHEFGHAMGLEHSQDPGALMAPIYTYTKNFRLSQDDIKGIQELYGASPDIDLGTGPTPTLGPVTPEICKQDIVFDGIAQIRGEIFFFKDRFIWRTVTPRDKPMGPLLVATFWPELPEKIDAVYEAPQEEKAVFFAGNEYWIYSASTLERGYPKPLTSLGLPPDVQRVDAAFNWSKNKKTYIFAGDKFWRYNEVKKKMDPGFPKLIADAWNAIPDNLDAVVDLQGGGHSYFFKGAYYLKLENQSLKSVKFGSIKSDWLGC
Melanocortin receptor 4, sequence (P32245 whole entry): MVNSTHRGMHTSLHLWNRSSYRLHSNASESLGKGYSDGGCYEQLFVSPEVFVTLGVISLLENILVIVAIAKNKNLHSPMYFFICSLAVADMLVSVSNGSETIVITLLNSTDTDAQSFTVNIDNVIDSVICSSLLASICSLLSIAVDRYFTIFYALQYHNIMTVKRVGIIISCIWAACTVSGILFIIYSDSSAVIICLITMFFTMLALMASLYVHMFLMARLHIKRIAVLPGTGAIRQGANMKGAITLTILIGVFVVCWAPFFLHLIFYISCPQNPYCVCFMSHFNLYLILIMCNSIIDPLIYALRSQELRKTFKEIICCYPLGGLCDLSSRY
26S proteasome non-ATPase regulatory subunit 14, sequence (O00487 whole entry): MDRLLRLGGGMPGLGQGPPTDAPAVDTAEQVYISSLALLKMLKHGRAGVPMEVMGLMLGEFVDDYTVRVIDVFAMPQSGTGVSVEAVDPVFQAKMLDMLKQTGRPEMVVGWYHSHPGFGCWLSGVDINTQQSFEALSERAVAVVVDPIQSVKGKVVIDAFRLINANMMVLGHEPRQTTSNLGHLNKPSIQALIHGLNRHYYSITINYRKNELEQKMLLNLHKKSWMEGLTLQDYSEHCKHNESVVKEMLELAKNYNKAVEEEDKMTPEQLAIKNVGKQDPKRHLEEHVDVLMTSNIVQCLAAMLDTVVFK
Induced myeloid leukemia cell differentiation protein Mcl-1, sequence (Q07820 whole entry, the tested form may be a part): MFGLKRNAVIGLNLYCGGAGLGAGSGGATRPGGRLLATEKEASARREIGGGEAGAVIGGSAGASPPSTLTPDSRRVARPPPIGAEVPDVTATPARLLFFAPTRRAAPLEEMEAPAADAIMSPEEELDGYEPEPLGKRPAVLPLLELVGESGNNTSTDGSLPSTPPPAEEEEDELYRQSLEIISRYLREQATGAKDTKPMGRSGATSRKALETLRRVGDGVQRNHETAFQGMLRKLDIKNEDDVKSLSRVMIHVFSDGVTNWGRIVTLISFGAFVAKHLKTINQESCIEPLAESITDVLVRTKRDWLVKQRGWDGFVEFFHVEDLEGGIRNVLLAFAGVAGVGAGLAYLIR
Cytochrome P450 2C9, sequence (P11712 whole entry): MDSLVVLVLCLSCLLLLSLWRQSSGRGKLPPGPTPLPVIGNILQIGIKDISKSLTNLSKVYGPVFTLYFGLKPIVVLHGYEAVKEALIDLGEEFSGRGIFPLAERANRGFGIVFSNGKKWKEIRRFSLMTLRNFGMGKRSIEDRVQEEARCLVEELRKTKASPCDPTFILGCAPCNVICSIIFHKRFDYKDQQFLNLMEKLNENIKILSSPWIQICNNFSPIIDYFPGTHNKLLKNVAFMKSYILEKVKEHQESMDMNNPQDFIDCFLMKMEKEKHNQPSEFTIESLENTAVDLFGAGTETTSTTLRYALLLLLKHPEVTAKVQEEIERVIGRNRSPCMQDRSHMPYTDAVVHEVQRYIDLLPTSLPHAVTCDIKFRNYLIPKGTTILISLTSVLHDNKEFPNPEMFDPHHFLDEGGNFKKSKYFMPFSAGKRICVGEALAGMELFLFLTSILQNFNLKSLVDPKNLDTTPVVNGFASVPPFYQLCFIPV
Cytochrome P450 2C19, sequence (P33261 whole entry): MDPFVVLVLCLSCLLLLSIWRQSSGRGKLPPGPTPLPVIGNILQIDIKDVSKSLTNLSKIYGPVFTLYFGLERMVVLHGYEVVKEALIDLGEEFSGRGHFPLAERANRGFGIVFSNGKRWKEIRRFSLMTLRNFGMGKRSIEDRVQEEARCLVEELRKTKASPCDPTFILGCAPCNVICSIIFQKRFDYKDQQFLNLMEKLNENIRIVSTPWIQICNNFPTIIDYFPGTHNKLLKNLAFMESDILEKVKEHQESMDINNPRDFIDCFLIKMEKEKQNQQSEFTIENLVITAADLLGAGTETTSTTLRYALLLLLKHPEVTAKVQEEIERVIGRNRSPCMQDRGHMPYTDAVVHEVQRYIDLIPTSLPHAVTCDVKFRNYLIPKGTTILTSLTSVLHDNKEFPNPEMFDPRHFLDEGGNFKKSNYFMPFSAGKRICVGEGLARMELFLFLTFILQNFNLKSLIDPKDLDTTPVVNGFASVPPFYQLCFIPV
Cytochrome P450 3A4, sequence (P08684 whole entry): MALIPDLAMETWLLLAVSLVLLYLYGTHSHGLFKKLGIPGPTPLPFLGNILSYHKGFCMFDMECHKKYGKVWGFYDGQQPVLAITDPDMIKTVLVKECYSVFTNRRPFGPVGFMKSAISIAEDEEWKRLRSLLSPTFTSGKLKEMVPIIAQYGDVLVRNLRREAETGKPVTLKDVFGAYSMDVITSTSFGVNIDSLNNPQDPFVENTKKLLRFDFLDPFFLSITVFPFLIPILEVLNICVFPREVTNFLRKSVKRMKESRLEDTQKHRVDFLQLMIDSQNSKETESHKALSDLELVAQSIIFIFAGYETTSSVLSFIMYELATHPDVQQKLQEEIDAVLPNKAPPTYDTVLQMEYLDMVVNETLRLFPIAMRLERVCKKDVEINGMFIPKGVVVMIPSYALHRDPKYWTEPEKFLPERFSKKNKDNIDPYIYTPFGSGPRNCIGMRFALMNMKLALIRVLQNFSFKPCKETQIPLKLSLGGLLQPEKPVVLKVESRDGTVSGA

Cc1nn(C(=O)CCC(=O)NCCc2ccccc2)c2ccccc12
EC50 (cells [1]): > 29.9 µM (inactive)
IC50 (cells [2]): > 29.9 µM (inactive)

COc1ccc(-n2nc3cc(C)c(NC(C)=O)cc3n2)cc1
IC50 (cells [3]): > 67.6 µM (inactive)
IC50 [4]: > 0.278 µM (active)

COc1cc(/C=C/c2nc(O)c3ccccc3n2)cc(Br)c1O
IC50 [5]: > 100 µM (inactive)
IC50 [6]: 0.914 µM (active)
IC50 (Prothrombin): 88 µM (active)

CCc1ccc(-c2cc(C(=O)NCc3ccco3)c3ccccc3n2)s1
EC50 [7]: 11.2 µM (active)
EC50 (H4): 23.9 µM (active)
AC50 (Cytochrome P450 3A4): 15.8 µM (inconclusive)
AC50 (Cytochrome P450 2C19): 4.47 µM (inconclusive)
IC50 [5]: > 100 µM (inactive)
IC50 [6]: 40.7 µM (active)
IC50 (Prothrombin): 55.8 µM (active)
EC50 [8]: 5.65 µM (active)
AC50 (Cytochrome P450 2C9): 2 µM (inconclusive)

CCOCCCN(Cc1ccco1)C(=O)c1cc2c(=O)[nH]c3ccc(C)cc3c2s1
EC50 (Melanocortin receptor 4): > 89.2 µM (inactive)

NC(CSC1(c2cccc3ccccc23)c2ccccc2-c2ccccc21)C(=O)O (centres undefined)
IC50 [9]: 27.7 µM (active)
IC50 [10]: 9.51 µM (active)

CCCCNc1ccc2c(c1)C1CC2CCN1C(=O)OCc1ccccc1 (centres undefined)
IC50 (cells [3]): > 67.5 µM (inactive)
AC50 (HeLa [11]): 76.2 µM (active)
IC50 [4]: > 67.5 µM (inactive)

Cc1ccc([S+]([O-])Cc2ccc(C(=O)N3CCN(C4CCCCC4)CC3)o2)cc1 (centres undefined)
IC50 (cells [3]): > 67.6 µM (inactive)
IC50 [4]: > 67.6 µM (inactive)

COc1ccc(N/N=C/c2c[nH]c3ccccc23)cc1
IC50 (Caspase-3): 19.9 µM (active)
IC50 [12]: 29.5 µM (active)
IC50 [13]: 11.4 µM (active)
IC50 [14]: 25.8 µM (active)

COc1ccccc1-c1cc(NC(C)=O)c2ncc(-c3cccc(C(C)=O)c3)n2c1
IC50 (H9c2): > 79 µM (inactive)
EC50 (Melanocortin receptor 4): > 89.2 µM (inactive)

COc1cccc(-c2noc(/C=C/c3ccccc3Cl)n2)c1
IC50 (Caspase-3): 20 µM (active)
IC50 [12]: 18 µM (active)
IC50 [13]: 5.2 µM (active)
IC50 [14]: 14 µM (active)

C[C@H](CO)N1C[C@H](C)[C@@H](CN(C)Cc2ccncc2)Oc2ccc(NC(=O)CCC(F)(F)F)cc2C1=O
AC50 (HeLa [15]): 23.4 µM (active)

O=C(N/N=C\C=C\c1ccco1)c1cc(-c2ccc3ccccc3c2)[nH]n1
IC50 [16]: 3.98 µM (active)
IC50 [9]: 20.3 µM (active)
IC50 [10]: 6.68 µM (active)
IC50 [17]: 2.96 µM (active)

Reference: ChEMBL document CHEMBL1201862, “PubChem BioAssay data set” (2004)
